Test results reported in article PMC7031403, “A molecular switch regulating transcriptional repression and activation of PPARγ” (Nature Communications, 2020).

What was measured:
[1] = system: PPARγ LBD (wild type or mutant); experiment: TR-FRET ligand displacement assay with Fluormone Pan-PPAR Green tracer; format: binding, human; settings: n=3; mutant 6xHis-PPARγ LBD, pH 8
[2] = system: full-length human PPARγ (isoform 2), wild type or mutant; experiment: Luciferase transcriptional reporter assay, 3xPPRE-luciferase, HEK293T cells; format: cell-based; settings: for PPARγ transcription normalized to DMSO of the same construct: 5 μM T0070907
Experimental: HEK293T (ATCC CRL03216) were cultured in Dulbecco’s minimal essential medium (DMEM, Gibco) supplemented with 10% fetal bovine serum (FBS) and 50 units ml^−1 of penicillin, streptomycin, and glutamine. Cells were grown to 90% confluency in T-75 flasks; from this, 2 million cells were seeded in a 10-cm cell culture dish for transfection using X-tremegene 9 (Roche) and Opti-MEM (Gibco) with full-length human PPARγ (isoform 2) expression plasmid (4 μg), and a luciferase reporter plasmid containing the three copies of the PPAR-binding DNA response element (PPRE) sequence (3xPPRE-luciferase) (4 μg). After an 18-h incubation, cells were transferred to white 384-well cell culture plates (Thermo Fisher Scientific) at 10,000 cells/well in 20 μL total volume/well. After a 4 h incubation, cells were treated in quadruplicate with 20 μL of either vehicle control (1.5% DMSO in DMEM media), twofold serial dilution of TZDs for dose response experiments, or 5 μM ligand. After a final 18-h incubation, cells were harvested with 20 μL Britelite Plus (PerkinElmer), and luminescence was measured on a BioTek Synergy Neo multimode plate reader. Data were plotted in GraphPad Prism as luminescence vs. ligand concentration and fit to a sigmoidal dose response curve.

[3] = system: interaction between the Gal4-PPARγ LBD and the VP16-NCoR RID; experiment: Mammalian two-hybrid protein-protein interaction assay in HEK293T cells (luciferase); format: cell-based, human; settings: 10 μM
Experimental: HEK293T (ATCC CRL03216) were cultured in Dulbecco’s minimal essential medium (DMEM, Gibco) supplemented with 10% fetal bovine serum (FBS) and 50 units ml^−1 of penicillin, streptomycin, and glutamine. […] Transfection solutions were prepared in Opti-MEM with Mirus Bio TransIT-LT1 transfection reagent. […] After another 24 hr incubation, britelite plus (PerkinElmer) was added to each well, mixed, then transferred to a white-bottom 384-well plate and read on a BioTek Synergy Neo multimode plate reader. Data were plotted and analyzed using GraphPad Prism software.

3T3-L1 preadipocytes = settings: cited from earlier work
From the text: The NCoR and SMRT corepressor proteins contain two conserved interaction domain (ID) regions, ID1 and ID2. […] In a cellular reporter assay, T0070907 represses transcrip ...

[4] = system: PPARγ LBD (wild type or mutant); experiment: Fluorescence polarization peptide interaction assay, NCoR ID2 peptide affinity, apo- or T0070907-bound wild type or mutant PPARγ LBD; format: binding, human; settings: Y327A, K367, Y477A, L476* truncation, +GAP extension
Experimental: Plates were incubated at 25 °C for 1 h, and fluorescence polarization was measured on a BioTek Synergy Neo multimode plate reader at […] wavelengths. Data were plotted using GraphPad Prism as fluorescence polarization signal in millipolarization units vs. protein concentration and fit to a one site—total binding equation.

[5] = system: 6xHis-PPARγ LBD (wild type or mutant); experiment: ESI-MS of covalent binding of T0070907 to 6xHis-PPARγ LBD; parameters: species or system human; settings: for ESI-MS molecular weight difference (control - T0070907): 2 molar equivalents, 4 °C overnight
Experimental: For M9 growth, cells were induced with 1.0 mM isopropyl β-D-thiogalactoside […] at an OD600nm of 0.6, grown for an additional 24–48 h at 18 °C then harvested. For ZY growth, cells were grown for 5 h at 37 °C and additional 12–18 h at 22 °C then harvested. […] TEV protease was used to cleave the histag for most experiments except protein used for TR-FRET and fluorescence polarization. The purified proteins were concentrated to 10 mg mL^−1 in a buffer consisting of 20 mM potassium phosphate (pH 7.4), 50 mM potassium chloride, 5 mM TCEP, and 0.5 mM EDTA (phosphate buffer). Purified protein was verified by SDS-PAGE as >95% pure.

[6] = system: PPARγ LBD with TRAP220 ID2 peptide; format: biochemical, human; settings: WT

O=C(Nc1ccncc1)c1cc([N+](=O)[O-])ccc1Cl [T0070907]
binding to structure-guided mutants by tracer displacement [1]: binds to most structure-guided mutants
T0070907-dependent change of mutant PPARγ transcription ([2]; H323A, Y327A, M364A, K367A, Y477A, L476* truncation, T461* truncation, +GAP extension, 5 μM): do not show T0070907-dependent transcriptional repression or in many cases show activation
PPARγ transcription normalized to DMSO of the same construct ([2]; K301A, replicate 1): 0.601
PPARγ transcription normalized to DMSO of the same construct ([2]; K301A, replicate 2): 0.547
PPARγ transcription normalized to DMSO of the same construct ([2]; K301A, replicate 3): 0.619
PPARγ transcription normalized to DMSO of the same construct ([2]; K301A, replicate 4): 0.652
PPARγ transcription normalized to DMSO of the same construct ([2]; K319A, replicate 1): 0.435
PPARγ transcription normalized to DMSO of the same construct ([2]; K319A, replicate 2): 0.446
PPARγ transcription normalized to DMSO of the same construct ([2]; K319A, replicate 3): 0.520
PPARγ transcription normalized to DMSO of the same construct ([2]; K319A, replicate 4): 0.484
PPARγ transcription normalized to DMSO of the same construct ([2]; N312A, replicate 1): 0.441
PPARγ transcription normalized to DMSO of the same construct ([2]; N312A, replicate 2): 0.377
PPARγ transcription normalized to DMSO of the same construct ([2]; N312A, replicate 3): 0.419
PPARγ transcription normalized to DMSO of the same construct ([2]; N312A, replicate 4): 0.451
PPARγ transcription normalized to DMSO of the same construct ([2]; Q294A, replicate 1): 0.419
PPARγ transcription normalized to DMSO of the same construct ([2]; Q294A, replicate 2): 0.458
PPARγ transcription normalized to DMSO of the same construct ([2]; Q294A, replicate 3): 0.375
PPARγ transcription normalized to DMSO of the same construct ([2]; Q294A, replicate 4): 0.460
PPARγ transcription normalized to DMSO of the same construct ([2]; Q314A, replicate 1): 0.312
PPARγ transcription normalized to DMSO of the same construct ([2]; Q314A, replicate 2): 0.263
PPARγ transcription normalized to DMSO of the same construct ([2]; Q314A, replicate 3): 0.273
PPARγ transcription normalized to DMSO of the same construct ([2]; Q314A, replicate 4): 0.339
PPARγ transcription normalized to DMSO of the same construct ([2]; WT, replicate 1): 0.438
PPARγ transcription normalized to DMSO of the same construct ([2]; WT, replicate 2): 0.486
PPARγ transcription normalized to DMSO of the same construct ([2]; WT, replicate 3): 0.448
PPARγ transcription normalized to DMSO of the same construct ([2]; WT, replicate 4): 0.456
effect on transcription of full-length PPARγ ([2]; WT, HEK293T): represses transcription
interaction with NCoR RID, mutants ([3]; R288A and M364A): no basal or T0070907-dependent interaction with NCoR RID
effect on interaction between the PPARγ LBD and the NCoR RID ([3]; WT, HEK293T): enhanced
interaction with NCoR RID, mutants ([3]; Y477A mutant and +GAP extension): lost T0070907-dependent increase in the interaction
effect on expression of PPARγ target genes (3T3-L1 preadipocytes): represses the expression
change of NCoR ID2 affinity, mutants [4]: no increase in NCoR ID2 affinity
ESI-MS molecular weight difference (control - T0070907) ([5]; K367A 6xHis-PPARγ LBD): 0 Da
ESI-MS molecular weight difference (control - T0070907) ([5]; WT 6xHis-PPARγ LBD): 242 Da
ESI-MS molecular weight difference (control - T0070907) ([5]; Y327A 6xHis-PPARγ LBD): 0 Da
covalent binding to mutants ([5]; Y327A and K367A mutants, ligand displacement and mass spectrometry): does not covalently bind
effect on binding of TRAP220 coactivator ID2 peptide [6]: decreases binding
